Key:
[1] = cited from earlier work
[2] = Fluorescence measurement of probe with cysteine; conditions: 100 nM probe
Method: The reaction was carried out using the 100 nM probe (compound 2) and 10 mM cysteine at 37° C. for 30 minutes in 50 mM Tris-HCl (pH 7.4). A fluorescence spectrum was obtained with a fluorescence spectrometer (FP-6500; JASCO). Fluorescence was obtained by excitation at 490 nm at a scanning range of 450 to 650 nm.
Fluorescence was monitored by excitation at 490 nm.

[3] = Reactivity of probe with thiol (fluorescence intensity at 522 nm); conditions: 1 μM probe, 37° C., 30 minutes, 50 mM Tris-HCl pH 7.4
Method: The reactivity of the probe (compound 2) with several types of thiols was examined by measuring an increase in the fluorescence intensity at 522 nm. The reaction was carried out using the 1 μM probe and 1 mM thiol at 37° C. for 30 minutes in 50 mM Tris-HCl (pH 7.4).
In addition, as a comparative example, a compound represented by the following formula (3) was used as a probe, and its reactivity was examined in the same above manner:
After addition of thiol, the solution was incubated at 37° C. for 30 minutes. The fluorescence at 522 nm was monitored by excitation at 490 nm. “3′-thio dT” indicates 3′-phosphorothioate-2′-deoxythymidine; “DTT” indicates dithiothreitol; “GSH” indicates glutathione; “L-Gly” indicates L-glycine; and “Vc” indicates ascorbic acid.

[4] = Stability of probe on heating in Tris buffer; assay type: physicochemical; conditions: 55° C. for 24 hours in 50 mM Tris buffer (pH 7.4)
HeLa cells = test: Fluorescence microscope observation of living HeLa cells; assay type: cell-based
Method: HeLa cells were allowed to grow at 37° C. in a 5% CO2 atmosphere in MEM in order to use them for a test with living cells. The cells were incubated at 37° C. for 15 minutes in the presence of the 25 μM probe (compound 2) (1:100 DMSO/PBS(−), v/v). As a control experiment, the cells were treated with 1 mM N-methylmaleimide in PBS(−) at 37° C. for 60 minutes, and the resultant cells were then washed with a PBS(−) buffer three times. Thereafter, the cells were incubated at 37° C. for 15 minutes in the presence of the 25 μM probe (1:100 DMSO/PBS(−), v/v).
The fluorescence image was obtained using a digital camera (Cool Snap HQ; Roper Scientific) and imaging software (MetaMorph; Molecular Devices), under a fluorescence microscope equipped with a mercury lamp (Axiovert 200M; Carl Zeiss). The conditions of the microscope were determined as follows. Excitation: 470/40 bandpass filter; light emission: 525/50 bandpass filter; and irradiation time: 300 msec.
(a, b): a control image of the cells, which were pre-treated with N-methylmaleimide (1 mM) at 37° C. for 60 minutes and were then incubated together with the probe (25 μM) at 37° C. for 15 minutes; (c, d): an image of the cells, which were incubated together with the probe (25 μM) at 37° C. for 15 minutes; (a, c) a bright-field image; (b, d) a fluorescent image. The conditions of the microscope were determined as follows. Excitation: 470/40 bandpass filter; light emission: 525/50 bandpass filter; and irradiation time: 300 msec.

[5] = Fluorescence measurement in solution with GSH; conditions: 100 nM probe
Method: The 100 nM probe (compound 4) was allowed to react with 10 mM GSH in 50 mM Tris-HCl (pH 7.4) at 37° C. for 30 minutes. Thereafter, the fluorescence intensity was measured using a fluorescence spectrometer (FP-6500; JASCO) (excitation wavelength: 540 nm).

HL60 = test: Flow cytometry of HL60 cells; assay type: cell-based; conditions: 100 μM probe, 37° C., 15 minutes; control pre-treated with 1 mM N-methylmaleimide 30 minutes
Method: The 100 μM probe (compound 4) was added to HL60, and the mixture was then reacted at 37° C. for 15 minutes. Thereafter, a measurement was then carried out by flow cytometry. 1 mM N-methylmaleimide (N-MMI) used as a thiol-blocking agent was added to HL60, and the obtained mixture was then reacted at 37° C. for 30 minutes. Thereafter, the 100 μM probe was added to the reaction product, and the obtained mixture was reacted at 37° C. for 15 minutes. Thereafter, the measurement was carried out by flow cytometry.

In the case of `OCCS` [2-mercaptoethanol], the pKa value [1] is listed as 9.5.
For `O=C1OC2(c3ccc(NS(=O)(=O)c4ccc([N+](=O)[O-])cc4[N+](=O)[O-])cc3Oc3cc(NS(=O)(=O)c4ccc([N+](=O)[O-])cc4[N+](=O)[O-])ccc32)c2ccccc21` [compound 2], the “increase in fluorescence intensity around 520 nm after addition of cysteine (factor)” value ([2]; 10 mM cysteine, 50 mM Tris-HCl pH 7.4, 37° C., 30 minutes, excitation 490 nm) was “approximately 3500”, the “fluorescence of the probe without cysteine” value ([2]; no cysteine, 50 mM Tris-HCl pH 7.4, excitation 490 nm) was “no significant fluorescence was observed” and the “increase in fluorescence intensity at 522 nm” value ([3]; 1 mM 2-mercaptoethanol (ME)) was 11 times. For the same molecule, the “activity on other biological substances (selectivity)” value ([3]; glycine, ascorbic acid, or hydrogen peroxide) was “did not exhibit activity”, the “stability: fluorescence signal after heating” value [4] was “no increase in the fluorescence signal was detected” and the “fluorescence signal of cells pre-treated with thiol-blocking agent” value (HeLa cells; HeLa cells pre-treated with 1 mM N-methylmaleimide 60 minutes, then 25 μM probe 15 minutes) was “no fluorescence signal was observed”. For the same molecule, the permeation into cells (HeLa cells; HeLa cells, 25 μM probe) was “permeates into the cell membrane” and the “fluorescence signal of cells” value (HeLa cells; HeLa cells, 25 μM probe, 15 minutes, 37° C.) was “significant fluorescence signal”.
In the case of `Nc1ccc2nc3c4ccccc4/c(=N\S(=O)(=O)c4ccc([N+](=O)[O-])cc4[N+](=O)[O-])cc-3oc2c1` [compound 4], the “fluorescence intensity at 620 nm after reaction with GSH” value ([5]; 10 mM GSH, 37° C., 30 minutes, 50 mM Tris-HCl pH 7.4, excitation 540 nm) is reported as “an increase in the fluorescence intensity was observed”, the “fluorescence of the probe as a single body (without GSH)” value ([5]; excitation 540 nm, 50 mM Tris-HCl pH 7.4) is reported as “generated no fluorescence” and the “fluorescence intensity of HL60 cells (−N-MMI) versus HL60 cells (+N-MMI)” value (HL60) is reported as “higher”.
With `O=C1OC2(c3ccc(NS(=O)(=O)c4ccc([N+](=O)[O-])cc4)cc3Oc3cc(NS(=O)(=O)c4ccc([N+](=O)[O-])cc4)ccc32)c2ccccc21` [formula (3), reference compound] the “increase in fluorescence intensity at 522 nm” value ([3]; 1 mM phosphorothioate (3′-thio dT)) was “approximately 950 times” and the “reaction with other thiol groups” value ([3]; 1 mM thiols other than phosphorothioate) was “did not react with other thiol groups”.

— patent US8187825B2, “Thiol detection method” (Riken, priority 2008, dated 2012)
